PMC8231556, “Inhibiting Endothelial Cell Function in Normal and Tumor Angiogenesis Using BMP Type I Receptor Macrocyclic Kinase Inhibitors” (Cancers, 2021)

What was measured:
Experiment in all cases: radiometric kinase profiling (33 PanQinase)
Type in all cases: biochemical
[1] = target: T1, DDR2 (Homo sapiens, UniProt Q16832); details: read-out: Inhibitory effect (%) DDR2
T1 construct: purchased Proqinase, Germany
T1 sequence (Q16832 22-855): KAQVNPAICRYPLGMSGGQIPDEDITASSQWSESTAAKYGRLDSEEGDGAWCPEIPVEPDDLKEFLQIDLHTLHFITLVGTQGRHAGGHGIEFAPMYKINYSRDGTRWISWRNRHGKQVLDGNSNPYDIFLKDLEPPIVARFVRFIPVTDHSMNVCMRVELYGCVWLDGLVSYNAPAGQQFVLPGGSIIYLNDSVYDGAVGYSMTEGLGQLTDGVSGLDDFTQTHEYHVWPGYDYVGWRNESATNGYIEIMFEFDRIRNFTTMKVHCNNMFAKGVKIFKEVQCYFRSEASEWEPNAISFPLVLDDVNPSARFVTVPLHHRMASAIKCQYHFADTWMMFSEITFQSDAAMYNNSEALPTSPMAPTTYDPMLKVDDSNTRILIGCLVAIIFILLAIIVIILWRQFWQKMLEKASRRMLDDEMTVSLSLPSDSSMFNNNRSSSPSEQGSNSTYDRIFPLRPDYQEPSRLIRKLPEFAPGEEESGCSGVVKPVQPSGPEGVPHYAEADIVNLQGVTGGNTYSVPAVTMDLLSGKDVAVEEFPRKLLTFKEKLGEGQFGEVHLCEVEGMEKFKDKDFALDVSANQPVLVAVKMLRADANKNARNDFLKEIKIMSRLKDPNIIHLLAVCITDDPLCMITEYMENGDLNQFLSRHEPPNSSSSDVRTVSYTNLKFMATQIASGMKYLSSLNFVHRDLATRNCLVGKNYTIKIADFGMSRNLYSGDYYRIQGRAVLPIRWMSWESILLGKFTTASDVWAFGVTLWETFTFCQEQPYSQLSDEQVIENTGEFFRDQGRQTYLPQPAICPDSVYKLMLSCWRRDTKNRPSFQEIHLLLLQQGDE
Procedure, shortened: (§1)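 Enzyme/substrate mixes were incubated with [γ-33P]-ATP and compound (added as a 0.1 μM solution in 10% DMSO) at 30 °C for 60 min, then stopped with H3PO4 and washed with NaCl. 33P incorporation was scintillation-counted, and residual activity (%) was normalized to untreated control and background.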

[2] = target: T2, PAK2 (Homo sapiens, UniProt Q13177); details: read-out: Inhibitory effect (%) PAK2
T2 construct: purchased ProQinase (33PanQinase Activity Assay)
T2 sequence (Q13177 whole entry): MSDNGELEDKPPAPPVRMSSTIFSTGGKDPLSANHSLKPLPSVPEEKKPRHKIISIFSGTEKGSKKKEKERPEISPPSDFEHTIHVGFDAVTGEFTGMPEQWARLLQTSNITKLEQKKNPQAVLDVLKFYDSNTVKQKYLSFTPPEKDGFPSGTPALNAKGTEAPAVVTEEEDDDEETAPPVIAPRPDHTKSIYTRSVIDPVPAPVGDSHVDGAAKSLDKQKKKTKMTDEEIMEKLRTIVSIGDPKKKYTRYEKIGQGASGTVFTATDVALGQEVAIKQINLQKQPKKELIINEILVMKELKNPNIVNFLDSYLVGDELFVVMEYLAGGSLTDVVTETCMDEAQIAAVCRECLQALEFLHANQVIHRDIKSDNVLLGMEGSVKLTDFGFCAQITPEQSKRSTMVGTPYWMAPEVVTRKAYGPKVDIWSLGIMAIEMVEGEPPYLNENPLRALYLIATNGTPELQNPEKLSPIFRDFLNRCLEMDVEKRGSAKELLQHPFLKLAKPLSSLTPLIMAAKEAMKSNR
Procedure, shortened: as §1

[3] = target: T3, RPS6KA1 (Homo sapiens, UniProt Q15418); details: read-out: Inhibitory effect (%) RPS6KA1
T3 construct: purchased ProQinase (33PanQinase Activity Assay)
T3 sequence (Q15418 whole entry): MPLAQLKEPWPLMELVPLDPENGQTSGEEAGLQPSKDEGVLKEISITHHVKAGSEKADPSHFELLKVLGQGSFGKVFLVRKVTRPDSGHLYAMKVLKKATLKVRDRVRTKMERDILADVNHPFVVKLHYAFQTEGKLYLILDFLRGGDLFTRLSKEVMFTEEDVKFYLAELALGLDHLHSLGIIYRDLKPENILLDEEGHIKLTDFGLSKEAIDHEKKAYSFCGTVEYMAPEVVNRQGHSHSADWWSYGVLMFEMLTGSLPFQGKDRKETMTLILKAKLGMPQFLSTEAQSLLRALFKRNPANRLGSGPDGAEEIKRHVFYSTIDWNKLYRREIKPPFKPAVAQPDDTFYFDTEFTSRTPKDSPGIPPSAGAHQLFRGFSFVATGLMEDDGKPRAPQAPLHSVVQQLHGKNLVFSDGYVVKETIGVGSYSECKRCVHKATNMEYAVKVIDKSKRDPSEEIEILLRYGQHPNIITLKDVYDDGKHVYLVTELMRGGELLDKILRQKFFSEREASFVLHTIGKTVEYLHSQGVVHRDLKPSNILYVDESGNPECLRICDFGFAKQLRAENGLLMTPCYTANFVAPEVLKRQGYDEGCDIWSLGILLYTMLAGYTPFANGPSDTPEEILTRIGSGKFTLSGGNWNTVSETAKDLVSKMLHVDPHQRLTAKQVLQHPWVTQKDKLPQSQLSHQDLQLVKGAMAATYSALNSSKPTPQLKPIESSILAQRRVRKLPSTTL
Procedure, shortened: as §1

[4] = target: T4, KDR (Homo sapiens, UniProt P35968); details: read-out: Inhibitory effect (%) KDR
T4 construct: purchased ProQinase (33PanQinase Activity Assay)
T4 sequence (P35968 20-1356): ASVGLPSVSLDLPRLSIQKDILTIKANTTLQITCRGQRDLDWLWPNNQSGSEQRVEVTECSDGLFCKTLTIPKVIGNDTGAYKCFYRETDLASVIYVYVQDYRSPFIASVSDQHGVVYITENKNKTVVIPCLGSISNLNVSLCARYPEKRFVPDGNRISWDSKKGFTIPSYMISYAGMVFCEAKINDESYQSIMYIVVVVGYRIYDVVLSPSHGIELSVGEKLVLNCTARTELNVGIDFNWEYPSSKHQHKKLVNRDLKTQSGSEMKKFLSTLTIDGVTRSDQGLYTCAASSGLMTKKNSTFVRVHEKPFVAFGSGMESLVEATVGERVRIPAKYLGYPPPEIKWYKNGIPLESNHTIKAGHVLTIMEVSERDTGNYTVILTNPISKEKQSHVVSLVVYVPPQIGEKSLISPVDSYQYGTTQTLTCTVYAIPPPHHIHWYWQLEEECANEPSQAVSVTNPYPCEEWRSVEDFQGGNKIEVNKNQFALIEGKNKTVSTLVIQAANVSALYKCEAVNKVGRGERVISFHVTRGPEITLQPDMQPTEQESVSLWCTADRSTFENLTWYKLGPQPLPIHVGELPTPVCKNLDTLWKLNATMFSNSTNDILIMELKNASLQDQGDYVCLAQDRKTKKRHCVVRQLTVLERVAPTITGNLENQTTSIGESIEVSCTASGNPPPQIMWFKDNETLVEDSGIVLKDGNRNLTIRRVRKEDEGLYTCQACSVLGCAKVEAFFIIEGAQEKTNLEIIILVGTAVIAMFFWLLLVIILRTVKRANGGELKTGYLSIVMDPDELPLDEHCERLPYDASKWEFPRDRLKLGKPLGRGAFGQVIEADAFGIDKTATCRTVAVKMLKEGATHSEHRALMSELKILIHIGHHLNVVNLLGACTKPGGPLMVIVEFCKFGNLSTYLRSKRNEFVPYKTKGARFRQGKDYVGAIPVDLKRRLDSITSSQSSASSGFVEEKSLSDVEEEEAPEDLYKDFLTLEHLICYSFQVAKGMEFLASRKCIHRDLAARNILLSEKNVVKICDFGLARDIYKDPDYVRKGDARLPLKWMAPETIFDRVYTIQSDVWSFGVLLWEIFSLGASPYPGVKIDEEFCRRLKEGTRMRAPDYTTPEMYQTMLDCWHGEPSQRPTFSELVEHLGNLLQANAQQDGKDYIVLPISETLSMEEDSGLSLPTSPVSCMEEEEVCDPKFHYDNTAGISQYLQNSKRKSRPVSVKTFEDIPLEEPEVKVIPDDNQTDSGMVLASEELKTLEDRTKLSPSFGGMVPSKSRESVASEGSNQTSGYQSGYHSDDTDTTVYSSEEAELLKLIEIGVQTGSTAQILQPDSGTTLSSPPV
Procedure, shortened: as §1

[5] = target: T5, JAK2 (Homo sapiens, UniProt O60674); details: read-out: Inhibitory effect (%) JAK2
T5 construct: purchased ProQinase (33PanQinase Activity Assay)
T5 sequence (O60674 whole entry): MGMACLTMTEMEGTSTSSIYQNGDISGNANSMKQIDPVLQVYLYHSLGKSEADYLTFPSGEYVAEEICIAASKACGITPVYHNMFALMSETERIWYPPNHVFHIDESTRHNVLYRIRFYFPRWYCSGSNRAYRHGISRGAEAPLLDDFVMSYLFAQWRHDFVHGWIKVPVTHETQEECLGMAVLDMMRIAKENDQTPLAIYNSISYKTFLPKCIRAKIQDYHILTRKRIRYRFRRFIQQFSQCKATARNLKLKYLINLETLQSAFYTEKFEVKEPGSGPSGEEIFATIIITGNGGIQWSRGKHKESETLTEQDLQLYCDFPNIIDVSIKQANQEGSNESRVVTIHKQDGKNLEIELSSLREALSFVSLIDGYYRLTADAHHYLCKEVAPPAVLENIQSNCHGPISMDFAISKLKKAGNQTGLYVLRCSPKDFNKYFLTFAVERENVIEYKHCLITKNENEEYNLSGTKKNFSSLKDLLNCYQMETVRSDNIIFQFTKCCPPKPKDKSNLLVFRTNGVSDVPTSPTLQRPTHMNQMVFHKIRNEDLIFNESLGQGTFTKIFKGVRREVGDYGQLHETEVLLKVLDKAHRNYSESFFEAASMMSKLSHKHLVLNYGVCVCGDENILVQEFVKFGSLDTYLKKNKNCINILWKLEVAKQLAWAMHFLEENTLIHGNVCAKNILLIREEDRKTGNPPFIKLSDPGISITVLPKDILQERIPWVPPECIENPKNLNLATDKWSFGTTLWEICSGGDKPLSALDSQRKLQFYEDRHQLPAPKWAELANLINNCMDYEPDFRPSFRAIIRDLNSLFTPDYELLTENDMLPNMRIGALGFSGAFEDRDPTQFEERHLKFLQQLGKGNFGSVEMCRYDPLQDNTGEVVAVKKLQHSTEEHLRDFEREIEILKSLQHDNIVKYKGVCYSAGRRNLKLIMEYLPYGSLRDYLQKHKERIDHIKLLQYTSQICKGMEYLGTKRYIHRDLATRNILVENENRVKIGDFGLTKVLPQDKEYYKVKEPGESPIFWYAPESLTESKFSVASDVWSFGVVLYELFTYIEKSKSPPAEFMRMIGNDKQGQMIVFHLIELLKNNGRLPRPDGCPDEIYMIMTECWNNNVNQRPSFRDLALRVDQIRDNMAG
Procedure, shortened: as §1

[6] = target: T6, IRAK4 (Homo sapiens, UniProt Q9NWZ3); details: read-out: Inhibitory effect (%) IRAK4
T6 construct: purchased ProQinase (33PanQinase Activity Assay)
T6 sequence (Q9NWZ3 1-460): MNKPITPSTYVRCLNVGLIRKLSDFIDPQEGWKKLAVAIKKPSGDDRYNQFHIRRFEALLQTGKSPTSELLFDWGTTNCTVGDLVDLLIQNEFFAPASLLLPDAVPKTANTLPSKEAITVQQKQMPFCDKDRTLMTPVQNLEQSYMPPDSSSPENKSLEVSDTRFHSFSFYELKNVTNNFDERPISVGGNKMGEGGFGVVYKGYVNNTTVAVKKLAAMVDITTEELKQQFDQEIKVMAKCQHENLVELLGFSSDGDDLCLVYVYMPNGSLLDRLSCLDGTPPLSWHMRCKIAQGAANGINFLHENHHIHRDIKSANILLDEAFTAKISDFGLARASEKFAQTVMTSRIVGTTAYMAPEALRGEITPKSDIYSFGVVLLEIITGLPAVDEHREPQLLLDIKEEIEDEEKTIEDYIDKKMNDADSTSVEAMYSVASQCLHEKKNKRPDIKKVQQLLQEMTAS
Procedure, shortened: as §1

[7] = target: T7, GSK3B (Homo sapiens, UniProt P49841); details: read-out: Inhibitory effect (%) GSK3B
T7 construct: purchased ProQinase (33PanQinase Activity Assay)
T7 sequence (P49841 whole entry): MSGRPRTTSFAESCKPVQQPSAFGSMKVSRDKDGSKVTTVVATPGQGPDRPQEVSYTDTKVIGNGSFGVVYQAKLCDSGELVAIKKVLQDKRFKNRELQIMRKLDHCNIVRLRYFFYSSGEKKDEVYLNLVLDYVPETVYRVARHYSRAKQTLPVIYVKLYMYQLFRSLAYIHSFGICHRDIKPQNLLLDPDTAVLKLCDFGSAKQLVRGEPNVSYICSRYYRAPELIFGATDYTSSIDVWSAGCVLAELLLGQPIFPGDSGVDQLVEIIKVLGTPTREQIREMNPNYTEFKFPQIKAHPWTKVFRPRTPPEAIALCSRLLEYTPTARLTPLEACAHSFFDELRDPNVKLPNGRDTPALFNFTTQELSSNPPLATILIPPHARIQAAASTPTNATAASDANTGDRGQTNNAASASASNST
Procedure, shortened: as §1

[8] = target: T8, PRKCB1_II (Homo sapiens, UniProt P05771); details: read-out: Inhibitory effect (%) PRKCB1_II
T8 construct: purchased ProQinase (33PanQinase Activity Assay)
T8 sequence (P05771 1-673 isoform P05771-2): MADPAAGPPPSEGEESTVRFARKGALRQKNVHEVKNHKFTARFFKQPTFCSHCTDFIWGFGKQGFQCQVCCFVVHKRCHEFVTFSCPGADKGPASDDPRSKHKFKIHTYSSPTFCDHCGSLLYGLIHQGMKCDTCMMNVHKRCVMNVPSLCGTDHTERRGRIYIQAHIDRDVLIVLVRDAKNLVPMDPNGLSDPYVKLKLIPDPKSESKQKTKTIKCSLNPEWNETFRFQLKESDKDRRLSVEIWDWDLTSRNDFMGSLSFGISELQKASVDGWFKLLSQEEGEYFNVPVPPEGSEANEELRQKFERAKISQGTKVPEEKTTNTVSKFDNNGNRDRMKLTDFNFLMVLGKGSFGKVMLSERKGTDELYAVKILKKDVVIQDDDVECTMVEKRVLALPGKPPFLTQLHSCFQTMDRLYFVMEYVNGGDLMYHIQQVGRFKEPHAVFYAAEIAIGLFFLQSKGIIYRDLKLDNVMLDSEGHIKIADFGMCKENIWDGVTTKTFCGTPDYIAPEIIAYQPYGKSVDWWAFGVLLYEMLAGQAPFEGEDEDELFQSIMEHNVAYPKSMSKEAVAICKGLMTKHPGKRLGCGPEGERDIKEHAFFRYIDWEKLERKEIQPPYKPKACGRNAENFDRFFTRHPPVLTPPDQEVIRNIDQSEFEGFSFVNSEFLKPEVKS
Procedure, shortened: as §1

[9] = target: T9, IGF1R (Homo sapiens, UniProt P08069); details: read-out: Inhibitory effect (%) IGF1R
T9 construct: purchased ProQinase (33PanQinase Activity Assay)
Procedure, shortened: as §1

| SMILES | inhibition at 0.1 µM [1] | inhibition at 0.1 µM [2] | inhibition at 0.1 µM [3] | inhibition at 0.1 µM [4] | inhibition at 0.1 µM [5] | inhibition at 0.1 µM [6] | inhibition at 0.1 µM [7] | inhibition at 0.1 µM [8] | inhibition at 0.1 µM [9] |
| --- | --- | --- | --- | --- | --- | --- | --- | --- | --- |
| CN1CCC(=O)NCCNc2ccn3ncc(c3n2)-c2cccc(c2)C1 [OD29] | 12.9% | 7.91% | 5.09% | 37.6% | 14.4% | 26.4% | 3.34% | 3.7% | 13.9% |
| CN1CCc2cccc(c2)Nc2nccc(n2)N2CCCc3cc(ccc32)C1 [OD16] | 33.5% | -27.1% | 17% | 0.8% | 50.2% | 4.7% | 1.33% | 15.9% | -39.5% |
| c1ccc2c(-c3cnn4cc(-c5ccc(N6CCNCC6)cc5)cnc34)ccnc2c1 [LDN-193189, reference compound] | 10.1% | -2.66% | -10.4% | -6.35% | 5.83% | -6.28% | -28.2% | 1.8% | 8.78% |
